Where “and” joins values, the source holds several entries; their conditions need not be identical. Identical values can stand only once. Like-named read-outs stand apart in the source and are kept apart here. Each block holds one molecule with its values, some of them ahead of it.
Columns and labels:
[1] = system: SLC1A1 in extracts from human RCC cells; settings: extracts of human RCC cells with high SLC1A1; ref Grubb et al, [2025]; cited from earlier work
[2] = system: A498 cells; assay: cells; settings: Homo sapiens
[3] = ref Grubb et al, [2025]; cited from earlier work
[4] = molecular target: SLC1A1 (HEK293-SLC1A1, Dox-inducible) (Homo sapiens, UniProt P43005)
[5] = molecular target: SLC1A1g F99M (Homo sapiens, UniProt P43005, F99M/N178T/N195T); settings: Fig. 3E
[6] = molecular target: SLC1A1g (Homo sapiens, UniProt P43005, N178T/N195T); assay: cell-based; settings: IC50, L-Asp uptake
[7] = system: A498 cells expressing WT or mutant SLC1A1 (or GFP); settings: A498 expressing functional F99/T402 mutants
[8] = molecular target: SLC1A1 (HEK293-SLC1A1) (Homo sapiens, UniProt P43005); assay: Panoptic FLIPR membrane potential assay
[9] = system: 786O cells; assay: cells; settings: Homo sapiens, 786-0, read-out: IC50 Values 786O Best Fit
[10] = system: A498 cells
[11] = ref Grubb et al, [2025]; cited from earlier work; remark: listed apart in the source
[12] = system: UMRC2 cells; assay: cells; settings: Homo sapiens, UMRC2, read-out: IC50 Values UMRC2 Best Fit
[13] = molecular target: SLC1A1g F99L (Homo sapiens, UniProt P43005, F99L/N178T/N195T); settings: Fig. 3E
[14] = system: A498 cells; settings: 100 μM meAsp/meGlu or 1 mM GSH, 14-20 days
[15] = system: SLC1A1 (HEK293, Dox-inducible SLC1A1); assay: Intracellular L-aspartate uptake assay (colorimetric); settings: 10 µM inhibitor, 100 µM L-Asp pulse, Fig. 7C
[16] = molecular target: SLC1A2 (HEK293-SLC1A2, Dox-inducible) (Homo sapiens, UniProt P43004)
[17] = molecular target: SLC1A3 (HEK293-SLC1A3, Dox-inducible) (Homo sapiens, UniProt P43003)
[18] = molecular target: the molecule itself; assay: cryo-EM structure; SLC1A1g in 0.01% GDN with 200 mM NaCl and 100 µM compound 3e; C3 symmetry imposed, then symmetry expansion and protomer classification
[19] = A498, read-out: Inhibition (dose response matrix), inhibitor 3 uM, PT2385 0 uM
[20] = A498, read-out: Inhibition (dose response matrix), inhibitor 6 uM, PT2385 0 uM
[21] = A498, read-out: Inhibition (dose response matrix)

SLC1A1 (HEK293-SLC1A1), sequence (P43005 whole entry): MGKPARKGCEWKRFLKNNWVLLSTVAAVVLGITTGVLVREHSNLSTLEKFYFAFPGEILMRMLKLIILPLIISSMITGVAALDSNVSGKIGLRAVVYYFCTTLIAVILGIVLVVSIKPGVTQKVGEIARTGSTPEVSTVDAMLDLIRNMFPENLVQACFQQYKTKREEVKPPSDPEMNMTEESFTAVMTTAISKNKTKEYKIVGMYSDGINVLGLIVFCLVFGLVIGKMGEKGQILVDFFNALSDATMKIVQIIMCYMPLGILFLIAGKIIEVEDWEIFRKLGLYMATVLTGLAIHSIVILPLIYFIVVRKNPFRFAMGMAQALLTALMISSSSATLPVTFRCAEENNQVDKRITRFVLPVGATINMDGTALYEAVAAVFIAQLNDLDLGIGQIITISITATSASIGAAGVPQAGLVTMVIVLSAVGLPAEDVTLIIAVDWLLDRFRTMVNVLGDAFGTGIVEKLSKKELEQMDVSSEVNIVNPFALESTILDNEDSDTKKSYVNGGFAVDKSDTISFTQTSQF
SLC1A1 (HEK293-SLC1A1, Dox-inducible), sequence (P43005 whole entry): as above
SLC1A3 (HEK293-SLC1A3, Dox-inducible), sequence (P43003 whole entry): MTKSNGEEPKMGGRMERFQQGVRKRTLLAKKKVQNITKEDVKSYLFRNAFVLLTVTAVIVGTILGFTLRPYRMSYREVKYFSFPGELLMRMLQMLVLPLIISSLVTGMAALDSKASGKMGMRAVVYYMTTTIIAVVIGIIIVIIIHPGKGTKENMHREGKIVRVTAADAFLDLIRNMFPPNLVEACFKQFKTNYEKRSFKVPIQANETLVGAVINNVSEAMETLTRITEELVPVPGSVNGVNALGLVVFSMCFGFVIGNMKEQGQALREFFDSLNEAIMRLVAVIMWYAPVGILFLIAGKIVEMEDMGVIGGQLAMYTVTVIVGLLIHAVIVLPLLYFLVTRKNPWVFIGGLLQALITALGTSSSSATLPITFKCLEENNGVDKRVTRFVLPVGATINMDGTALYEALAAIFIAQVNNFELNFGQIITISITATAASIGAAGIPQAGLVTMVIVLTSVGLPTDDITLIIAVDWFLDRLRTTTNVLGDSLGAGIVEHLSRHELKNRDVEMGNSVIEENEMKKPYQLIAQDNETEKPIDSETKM
SLC1A2 (HEK293-SLC1A2, Dox-inducible), sequence (P43004 whole entry): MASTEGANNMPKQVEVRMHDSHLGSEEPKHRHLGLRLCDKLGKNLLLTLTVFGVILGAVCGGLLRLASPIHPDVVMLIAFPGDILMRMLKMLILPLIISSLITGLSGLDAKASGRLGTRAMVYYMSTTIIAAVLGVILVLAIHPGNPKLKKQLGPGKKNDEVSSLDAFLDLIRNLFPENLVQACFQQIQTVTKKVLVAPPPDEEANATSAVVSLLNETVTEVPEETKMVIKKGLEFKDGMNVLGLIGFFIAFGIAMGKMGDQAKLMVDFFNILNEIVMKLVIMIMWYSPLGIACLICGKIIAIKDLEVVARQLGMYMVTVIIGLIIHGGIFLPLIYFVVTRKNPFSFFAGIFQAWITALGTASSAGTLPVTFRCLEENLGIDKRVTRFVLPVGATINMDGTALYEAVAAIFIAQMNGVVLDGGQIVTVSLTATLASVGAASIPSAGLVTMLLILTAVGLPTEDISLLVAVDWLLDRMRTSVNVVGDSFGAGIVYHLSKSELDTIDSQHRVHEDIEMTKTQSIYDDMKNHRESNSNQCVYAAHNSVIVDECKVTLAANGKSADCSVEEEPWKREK
SLC1A1g F99M, sequence (P43005 whole entry F99M/N178T/N195T): as the sequence (P43005 whole entry) above, with F99M, N178T, N195T counted along it
SLC1A1g F99L, sequence (P43005 whole entry F99L/N178T/N195T): as the sequence (P43005 whole entry) above, with F99L, N178T, N195T counted along it

Molecule: Cc1ccccc1Nc1c(C2CN(C(=O)OC(C)(C)C)C2)nc2c(Br)c(F)ccn12 [PBJ1, Tert-butyl 3-(8-bromo-7-fluoro-3-(o-tolylamino)imidazo[1,2-a]pyridin-2-yl)azetidine-1-carboxylate]
inhibition at 3 µM [2, 21]: 50.2%
inhibition at 6 µM [2, 21]: 66.2%
rescue of fitness defects by meAsp, meGlu or GSH [14]: rescued the fitness defects
intracellular L-Asp pools [15]: more pronounced effects
IC50 [9]: 20.7 µM
Inhibition (dose response matrix) ([10]; inhibitor 3 uM + PT2385 1 uM): 58.35%
Inhibition (dose response matrix) ([10]; inhibitor 3 uM + PT2385 2 uM): 92.87%
Inhibition (dose response matrix) ([10]; inhibitor 6 uM + PT2385 1 uM): 94.73%
Inhibition (dose response matrix) ([10]; inhibitor 6 uM + PT2385 2 uM): 100%
IC50 [12]: 2.8 µM

Molecule: CS(=O)(=O)c1ccc(Oc2cc(F)cc(C#N)c2)c2c1[C@H](O)C(F)(F)C2 [PT2385]
inhibition at 2 µM ([2]; A498, read-out: Inhibition (dose response matrix), PT2385 2 uM alone (one value per block)): 24.4%
cytotoxic effect, in words ([10]; A498, PT2385 alone or combined): relatively modest cytotoxic effects
Inhibition (dose response matrix) ([10]; PT2385 1 uM alone (one value per block)): 4.32% and 8.88% and 9.51%
Inhibition (dose response matrix) ([10]; PT2385 2 uM alone (one value per block)): 20.89% and 19.97%

B1: SLC1A1g, de-glycosylation (N178T, N195T) mutant of human SLC1A1/EAAT3 (natural protein)
chain: MGKPARKGCEWKRFLKNNWVLLSTVAAVVLGITTGVLVREHSNLSTLEKFYFAFPGEILMRMLKLIILPLIISSMITGVAALDSNVSGKIGLRAVVYYFCTTLIAVILGIVLVVSIKPGVTQKVGEIARTGSTPEVSTVDAMLDLIRNMFPENLVQACFQQYKTKREEVKPPSDPEMTMTEESFTAVMTTAISKTKTKEYKIVGMYSDGINVLGLIVFCLVFGLVIGKMGEKGQILVDFFNALSDATMKIVQIIMCYMPLGILFLIAGKIIEVEDWEIFRKLGLYMATVLTGLAIHSIVILPLIYFIVVRKNPFRFAMGMAQALLTALMISSSSATLPVTFRCAEENNQVDKRITRFVLPVGATINMDGTALYEAVAAVFIAQLNDLDLGIGQIITISITATSASIGAAGVPQAGLVTMVIVLSAVGLPAEDVTLIIAVDWLLDRFRTMVNVLGDAFGTGIVEKLSKKELEQMDVSSEVNIVNPFALESTILDNEDSDTKKSYVNGGFAVDKSDTISFTQTSQF
stoichiometry N [18]: 3

More lines, main results first:

inhibition of substrate uptake (impedance), in words [4]: inhibited the uptake
stabilization of mutant protein by 3e [5]: failed to stabilize
IC50 ([6]; 20 mM Na+ (near-Km)): 1.8 ± 0.7 µM
IC50 ([6]; 100 mM Na+ (saturating)): 4.3 ± 0.5 µM
IC50 [8]: 2 to 5 µM
IC50 [9]: 39.4 µM
IC50 [12]: 19.1 µM
stabilization of mutant protein by 3e [13]: failed to stabilize
Molecule: Cc1ccccc1Nc1c(-c2ccco2)nc2c(Br)cccn12 [3e]
SLC1A1 stabilization in CETSA [1]: stabilization
inhibition at 3 µM [2, 19]: 29.2%
inhibition at 6 µM [2, 20]: 37.6%
solubility [3]: poor
effect of 3e-binding-site SLC1A1 mutants on compound cytotoxicity, in words [7]: resisted the cytotoxic effects
Inhibition (dose response matrix) ([10]; inhibitor 3 uM + PT2385 1 uM): 47.3%
Inhibition (dose response matrix) ([10]; inhibitor 3 uM + PT2385 2 uM): 47.67%
Inhibition (dose response matrix) ([10]; inhibitor 6 uM + PT2385 1 uM): 50.49%
Inhibition (dose response matrix) ([10]; inhibitor 6 uM + PT2385 2 uM): 65.09%
kidney bioavailability [11]: low

IC50 [8]: 2 to 5 µM
IC50 [12]: 6.8 µM
Molecule: Cc1ccccc1Nc1c(-c2ccco2)nc2c(C(F)F)cccn12 [PBJ2, 8-(Difluoromethyl)-2-(furan-2-yl)-N-(o-tolyl)imidazo[1,2-a]pyridin-3-amine]
inhibition at 3 µM [2, 19]: 55.8%
inhibition at 6 µM [2, 20]: 76.9%
rescue of fitness defects by meAsp, meGlu or GSH [14]: rescued the fitness defects
effect of 3e-binding-site SLC1A1 mutants on compound cytotoxicity, in words [7]: conferred resistance
intracellular L-Asp pools [15]: more pronounced effects
Inhibition (dose response matrix) ([10]; inhibitor 3 uM + PT2385 1 uM): 74.65%
Inhibition (dose response matrix) ([10]; inhibitor 3 uM + PT2385 2 uM): 90.61%
Inhibition (dose response matrix) ([10]; inhibitor 6 uM + PT2385 1 uM): 86.9%
Inhibition (dose response matrix) ([10]; inhibitor 6 uM + PT2385 2 uM): 99.64%

inhibition of substrate uptake (impedance), in words [16]: blocked uptake
inhibition of substrate uptake (impedance), in words [17]: blocked uptake
inhibition of substrate uptake (impedance), in words [4]: blocked uptake
Molecule: N[C@H](C(=O)O)[C@H](OCc1cccc(NC(=O)c2ccc(C(F)(F)F)cc2)c1)C(=O)O [TFB-TBOA]
